This is an account of results in patent US7951813B2, “Quinazolinone derivatives as ALDH-2 inhibitors” (Gilead Sciences, Inc., priority 2007, dated 2011).

“Also recorded” adds a separate entry of the source. Bounds are passed on as bounds.

One test has as its target T1, hALDH2 (UniProt P05091).
T1 sequence (P05091 1-517): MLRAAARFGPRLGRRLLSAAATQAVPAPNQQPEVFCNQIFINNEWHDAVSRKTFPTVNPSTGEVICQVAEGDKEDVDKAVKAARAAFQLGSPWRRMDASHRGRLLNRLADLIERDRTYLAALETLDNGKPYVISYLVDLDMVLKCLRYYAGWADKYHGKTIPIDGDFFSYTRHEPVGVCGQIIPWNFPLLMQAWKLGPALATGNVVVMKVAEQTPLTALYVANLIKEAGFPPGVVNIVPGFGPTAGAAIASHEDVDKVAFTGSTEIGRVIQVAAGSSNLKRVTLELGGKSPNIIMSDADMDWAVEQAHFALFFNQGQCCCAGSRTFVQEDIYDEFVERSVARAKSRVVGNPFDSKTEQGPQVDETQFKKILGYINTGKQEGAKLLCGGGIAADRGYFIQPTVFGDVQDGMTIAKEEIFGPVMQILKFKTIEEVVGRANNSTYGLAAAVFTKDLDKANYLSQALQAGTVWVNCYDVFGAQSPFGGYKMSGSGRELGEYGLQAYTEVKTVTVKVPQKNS
The test is described as follows: ALDH-2 assay (inhibition of hALDH2). It is filed as biochemical, human.

For the next test, the target named is T2, hMAO-B (Homo sapiens, UniProt P27338).
T2 sequence (P27338 2-520 limits assumed): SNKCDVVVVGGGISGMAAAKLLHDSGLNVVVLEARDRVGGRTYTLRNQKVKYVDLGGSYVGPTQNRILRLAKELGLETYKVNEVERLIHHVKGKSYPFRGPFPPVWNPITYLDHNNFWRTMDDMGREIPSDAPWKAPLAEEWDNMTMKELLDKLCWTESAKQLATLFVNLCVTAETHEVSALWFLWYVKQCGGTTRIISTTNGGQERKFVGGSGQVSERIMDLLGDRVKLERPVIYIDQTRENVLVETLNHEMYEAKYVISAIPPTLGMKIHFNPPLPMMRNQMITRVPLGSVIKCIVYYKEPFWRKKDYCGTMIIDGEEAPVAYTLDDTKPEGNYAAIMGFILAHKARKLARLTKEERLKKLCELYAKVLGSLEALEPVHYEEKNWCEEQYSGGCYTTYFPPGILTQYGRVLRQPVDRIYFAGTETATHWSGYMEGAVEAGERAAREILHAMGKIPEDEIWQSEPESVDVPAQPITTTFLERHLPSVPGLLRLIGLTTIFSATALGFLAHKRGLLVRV
The test is described as follows: MAO assay (inhibition of hMAO-B). In kind it is biochemical. The conditions noted are these: read-out: IC50 hMAO-B (No inhibition up to 10 μM).

For a further test, the target named is T3, hMAO-A (UniProt P21397).
T3 sequence (P21397 1-527): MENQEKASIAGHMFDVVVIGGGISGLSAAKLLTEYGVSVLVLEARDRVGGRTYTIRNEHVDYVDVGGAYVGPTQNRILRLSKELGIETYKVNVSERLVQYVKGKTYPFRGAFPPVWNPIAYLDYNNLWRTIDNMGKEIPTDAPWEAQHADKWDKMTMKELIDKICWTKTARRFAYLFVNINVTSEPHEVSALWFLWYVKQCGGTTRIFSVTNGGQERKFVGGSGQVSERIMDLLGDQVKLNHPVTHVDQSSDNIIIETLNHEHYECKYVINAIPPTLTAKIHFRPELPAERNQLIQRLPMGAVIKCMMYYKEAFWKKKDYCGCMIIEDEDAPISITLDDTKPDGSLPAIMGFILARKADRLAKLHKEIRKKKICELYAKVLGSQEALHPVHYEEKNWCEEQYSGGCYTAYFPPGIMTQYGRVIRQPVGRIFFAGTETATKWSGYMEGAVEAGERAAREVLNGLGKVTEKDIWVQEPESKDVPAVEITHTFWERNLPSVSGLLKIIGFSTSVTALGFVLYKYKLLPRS
The test is described as follows: MAO assay (inhibition of hMAO-A). The conditions noted are these: read-out: IC50 hMAO-A (No inhibition up to 10 μM). In kind it is biochemical, human.

In the next test the test system is Syrian golden hamsters. The conditions noted are these: background statement, Keung and Vallee; U.S. Pat. Nos. 5,624,910 and 6,121,010; cited from earlier work.
Test [1] deals with T4, human mitochondrial aldehyde dehydrogenase (ALDH-2) (Homo sapiens, UniProt P05091).
T4 sequence (P05091 18-517): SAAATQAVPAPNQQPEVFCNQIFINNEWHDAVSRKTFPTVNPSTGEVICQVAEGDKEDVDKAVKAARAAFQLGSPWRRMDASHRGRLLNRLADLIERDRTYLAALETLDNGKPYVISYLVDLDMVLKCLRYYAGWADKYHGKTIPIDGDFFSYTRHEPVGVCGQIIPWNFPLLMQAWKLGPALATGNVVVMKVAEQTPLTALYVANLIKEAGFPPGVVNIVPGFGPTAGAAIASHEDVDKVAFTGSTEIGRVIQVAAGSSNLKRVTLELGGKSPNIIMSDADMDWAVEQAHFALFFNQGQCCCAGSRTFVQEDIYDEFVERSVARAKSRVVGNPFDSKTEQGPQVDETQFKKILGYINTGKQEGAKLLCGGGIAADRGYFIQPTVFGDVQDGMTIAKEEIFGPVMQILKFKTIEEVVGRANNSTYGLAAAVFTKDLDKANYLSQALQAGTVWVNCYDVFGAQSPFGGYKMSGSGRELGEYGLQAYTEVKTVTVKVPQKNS
Particulars: background statement, U.S. Pat. Nos. 5,624,910 and 6,121,010; cited from earlier work.

As a reminder, the IC50 is the midpoint of a concentration-inhibition curve. Consider `O=c1c2ccc(OCc3noc(-c4ccccc4)n3)cc2ncn1-c1ccc(O)cc1` [3-(4-hydroxyphenyl)-7-[(5-phenyl(1,2,4-oxadiazol-3-yl))methoxy]-3-hydroquinazolin-4-one], for which the half-inhibitory concentration (IC50) was 0.107 µM against hALDH2, greater than 10 µM at hMAO-B and greater than 10 µM at hMAO-A.
As for `O=c1c2ccc(OCc3noc(-c4cc(C(F)(F)F)cc(C(F)(F)F)c4)n3)cc2ncn1-c1ccc(O)cc1` [7-({5-[3,5-bis(trifluoromethyl)phenyl](1,2,4-oxadiazol-3-yl)}methoxy)-3-(4-hydroxyphenyl)-3-hydroquinazolin-4-one], the IC50 against hALDH2 is 0.07 µM; at hMAO-B, greater than 10 µM; at hMAO-A, greater than 10 µM.
With `O=c1c(-c2ccc(O)cc2)coc2cc(O)ccc12` [daidzein], in the test on Syrian golden hamsters, the “suppression of ethanol intake” value is “effective in suppressing ethanol intake; also recorded: effective in suppressing ethanol uptake”.
Regarding `O=c1c2ccc(OCc3noc(-c4cc(F)cc(C(F)(F)F)c4)n3)cc2ncn1-c1ccc(O)cc1` [7-({5-[5-fluoro-3-(trifluoromethyl)phenyl](1,2,4-oxadiazol-3-yl)}methoxy)-3-(4-hydroxyphenyl)-3-hydroquinazolin-4-one], the IC50 against hALDH2 was 0.07 µM; at hMAO-B, greater than 10 µM; at hMAO-A it was greater than 10 µM.
For the compound `NC(=O)c1cccc(COc2ccc3c(=O)n(-c4ccc(O)cc4)cnc3c2)c1` [3-{[3-(4-hydroxyphenyl)-4-oxo-3-hydroquinazolin-7-yloxy]methyl}benzamide], the results for the concentration for half-maximal inhibition (IC50) at hALDH2, on hMAO-B and on hMAO-A were 0.021 µM, greater than 10 µM and greater than 10 µM, respectively.
For `COc1ccc(-c2nc(COc3ccc4c(=O)n(-c5ccc(O)cc5)cnc4c3)no2)cc1C(F)(F)F` [3-(4-hydroxyphenyl)-7-({5-[4-methoxy-3-(trifluoromethyl)phenyl](1,2,4-oxadiazol-3-yl)}methoxy)-3-hydroquinazolin-4-one], the half-maximal inhibitory concentration (IC50) at hALDH2 was 0.1 µM; on hMAO-B it was greater than 10 µM; at hMAO-A it was greater than 10 µM.
For the compound `O=C(O)c1cccc(COc2ccc3c(=O)n(-c4ccc(O)cc4)cnc3c2)c1` [Example 3A, 3-{[3-(4-hydroxyphenyl)-4-oxo-3-hydroquinazolin-7-yloxy]methyl}benzoic acid], the figures for the 50% inhibitory concentration (IC50) against hALDH2, at hMAO-B and on hMAO-A were 0.136 µM, greater than 10 µM and greater than 10 µM, respectively.
Consider `N#Cc1cccc(COc2ccc3c(=O)n(-c4ccc(O)cc4)cnc3c2)c1` [3-{[3-(4-hydroxyphenyl)-4-oxo-3-hydroquinazolin-7-yloxy]methyl} benzenecarbonitrile], for which the results for the IC50 against hALDH2, at hMAO-B and on hMAO-A were 0.196 µM, greater than 10 µM and greater than 10 µM, respectively.
As to `CC(C)OC(=O)c1cccc(COc2ccc3c(=O)n(-c4ccc(O)cc4)cnc3c2)c1` [methylethyl 3-{[3-(4-hydroxyphenyl)-4-oxo-3-hydroquinazolin-7-yloxy]methyl} benzoate], the values for the IC50 against hALDH2, on hMAO-B and at hMAO-A were 0.095 µM, greater than 10 µM and greater than 10 µM, respectively.
For the compound `C=CCOC(=O)c1cccc(COc2ccc3c(=O)n(-c4ccc(O)cc4)cnc3c2)c1` [Example 2A, prop-2-enyl 3-{[3-(4-hydroxyphenyl)-4-oxo-3-hydroquinazolin-7-yloxy]methyl} benzoate], the 50% inhibitory concentration (IC50) against hALDH2 is 0.196 µM; on hMAO-B, greater than 10 µM; at hMAO-A it was greater than 10 µM.
For the compound `O=c1c2ccc(OCc3noc(-c4cc(C(F)(F)F)ccc4C(F)(F)F)n3)cc2ncn1-c1ccc(O)cc1` [7-({5-[2,5-bis(trifluoromethyl)phenyl](1,2,4-oxadiazol-3-yl)}methoxy)-3-(4-hydroxyphenyl)-3-hydroquinazolin-4-one], the IC50 is 0.312 µM at hALDH2, greater than 10 µM on hMAO-B and greater than 10 µM at hMAO-A.
As to `COc1ccccc1-c1nc(COc2ccc3c(=O)n(-c4ccc(O)cc4)cnc3c2)no1` [7-({5-[2-methoxyphenyl](1,2,4-oxadiazol-3-yl)}methoxy)-3-(4-hydroxyphenyl)-3-hydroquinazolin-4-one], the IC50 on hALDH2 is 0.09 µM; on hMAO-B, greater than 10 µM; on hMAO-A, greater than 10 µM.
The compound `N#Cc1cccc(-c2nc(COc3ccc4c(=O)n(-c5ccc(O)cc5)cnc4c3)no2)c1` [3-(3-{[3-(4-hydroxyphenyl)-4-oxo-3-hydroquinazolin-7-yloxy]methyl}-1,2,4-oxadiazol-5-yl)benzenecarbonitrile] had a hALDH2 % inhibition at hALDH2 (at 1 μM) of 25% inhibition at 1 μM. The IC50 on hMAO-B and on hMAO-A was greater than 10 µM in each case.
`O=c1c(-c2ccc(O)cc2)coc2cc(O[C@@H]3O[C@H](CO)[C@@H](O)[C@H](O)[C@H]3O)ccc12` [Daidzin, daidzin]: the “inhibition of human mitochondrial ALDH-2” value in test [1] is “potent and selective inhibitors”.
`O=c1c2ccc(OCc3noc(-c4cccc(C(F)(F)F)c4)n3)cc2ncn1-c1ccc(O)cc1` [3-(4-hydroxyphenyl)-7-({5-[3-(trifluoromethyl)phenyl](1,2,4-oxadiazol-3-yl)}methoxy)-3-hydroquinazolin-4-one]: the 50% inhibitory concentration (IC50) on hALDH2 was 0.03 µM; at hMAO-B, greater than 10 µM; at hMAO-A it was greater than 10 µM.
